From the Kinase Knowledgebase extract (Sharma et al. 2016)
pKi: −log10 of the molar value.

Experiments:
Experiment in all cases: Enzyme Assay
PIK3CB (Human) = PIK3CB (Human) (UniProt P42338)
PIK3CD (Human) = PIK3CD (Human) (UniProt O00329)
PIK3CG (human) = PIK3CG (human) (UniProt P48736)
PIK3CA (human) = PIK3CA (human) (UniProt P42336)
PIK3CA (human), sequence (P42336 whole entry, looked up): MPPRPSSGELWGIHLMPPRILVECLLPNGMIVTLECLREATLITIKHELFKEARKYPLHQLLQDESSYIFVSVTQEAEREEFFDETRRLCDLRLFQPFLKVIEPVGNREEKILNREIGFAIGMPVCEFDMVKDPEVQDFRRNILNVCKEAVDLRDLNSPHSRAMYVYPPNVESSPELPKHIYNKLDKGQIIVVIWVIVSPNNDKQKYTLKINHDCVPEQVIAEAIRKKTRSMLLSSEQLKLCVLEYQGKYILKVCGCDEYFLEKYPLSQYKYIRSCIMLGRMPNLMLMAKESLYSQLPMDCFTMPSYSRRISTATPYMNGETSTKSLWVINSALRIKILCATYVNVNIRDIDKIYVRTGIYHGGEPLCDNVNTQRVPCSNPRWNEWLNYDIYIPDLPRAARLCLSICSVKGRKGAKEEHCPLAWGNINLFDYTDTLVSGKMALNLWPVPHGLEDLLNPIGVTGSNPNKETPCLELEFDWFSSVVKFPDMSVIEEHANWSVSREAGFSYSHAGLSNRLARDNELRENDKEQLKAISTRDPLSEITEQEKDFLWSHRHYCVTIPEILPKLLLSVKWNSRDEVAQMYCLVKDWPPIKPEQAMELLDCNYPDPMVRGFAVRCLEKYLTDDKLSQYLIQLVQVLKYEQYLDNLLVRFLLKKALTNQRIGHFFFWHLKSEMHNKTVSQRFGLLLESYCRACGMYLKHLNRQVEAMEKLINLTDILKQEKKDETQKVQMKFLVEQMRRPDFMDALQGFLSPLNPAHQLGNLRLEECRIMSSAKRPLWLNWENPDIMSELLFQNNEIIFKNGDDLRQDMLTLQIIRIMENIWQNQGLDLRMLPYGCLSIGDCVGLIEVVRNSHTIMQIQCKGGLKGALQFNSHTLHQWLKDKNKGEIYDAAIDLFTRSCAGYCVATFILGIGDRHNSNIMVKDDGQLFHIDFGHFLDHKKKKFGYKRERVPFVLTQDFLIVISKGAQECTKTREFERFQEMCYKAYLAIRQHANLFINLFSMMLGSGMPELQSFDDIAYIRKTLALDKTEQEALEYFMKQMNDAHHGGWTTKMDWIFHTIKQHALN

PIK3CB (Human), sequence (P42338 whole entry, looked up): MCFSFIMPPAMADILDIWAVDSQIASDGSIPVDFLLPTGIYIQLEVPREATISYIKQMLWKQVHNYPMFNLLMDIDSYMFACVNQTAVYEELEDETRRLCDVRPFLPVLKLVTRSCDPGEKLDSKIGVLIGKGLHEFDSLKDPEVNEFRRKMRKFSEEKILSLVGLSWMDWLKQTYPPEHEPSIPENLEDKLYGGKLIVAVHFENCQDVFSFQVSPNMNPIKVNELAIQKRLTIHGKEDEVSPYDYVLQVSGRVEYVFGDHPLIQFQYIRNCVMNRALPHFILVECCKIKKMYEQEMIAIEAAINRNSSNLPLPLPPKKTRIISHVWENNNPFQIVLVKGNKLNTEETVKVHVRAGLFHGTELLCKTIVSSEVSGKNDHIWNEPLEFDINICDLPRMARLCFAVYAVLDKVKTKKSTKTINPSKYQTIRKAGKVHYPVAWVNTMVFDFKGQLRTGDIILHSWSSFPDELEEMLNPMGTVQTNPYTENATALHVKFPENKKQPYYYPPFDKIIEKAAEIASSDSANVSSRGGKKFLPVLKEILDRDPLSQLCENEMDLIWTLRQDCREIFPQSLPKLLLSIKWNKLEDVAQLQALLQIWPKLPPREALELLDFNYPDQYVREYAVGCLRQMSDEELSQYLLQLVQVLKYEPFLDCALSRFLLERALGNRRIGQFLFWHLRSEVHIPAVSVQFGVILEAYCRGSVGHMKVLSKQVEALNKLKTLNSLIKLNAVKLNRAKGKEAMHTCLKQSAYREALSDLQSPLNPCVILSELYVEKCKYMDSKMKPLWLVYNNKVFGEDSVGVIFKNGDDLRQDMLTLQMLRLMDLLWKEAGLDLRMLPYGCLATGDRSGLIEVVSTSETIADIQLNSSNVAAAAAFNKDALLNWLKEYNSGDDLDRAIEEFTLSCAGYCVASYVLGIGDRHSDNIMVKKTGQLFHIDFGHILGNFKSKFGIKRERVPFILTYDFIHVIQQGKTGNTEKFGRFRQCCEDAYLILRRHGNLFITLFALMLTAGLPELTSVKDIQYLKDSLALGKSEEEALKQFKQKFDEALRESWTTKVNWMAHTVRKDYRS
PIK3CD (Human), sequence (O00329 whole entry, looked up): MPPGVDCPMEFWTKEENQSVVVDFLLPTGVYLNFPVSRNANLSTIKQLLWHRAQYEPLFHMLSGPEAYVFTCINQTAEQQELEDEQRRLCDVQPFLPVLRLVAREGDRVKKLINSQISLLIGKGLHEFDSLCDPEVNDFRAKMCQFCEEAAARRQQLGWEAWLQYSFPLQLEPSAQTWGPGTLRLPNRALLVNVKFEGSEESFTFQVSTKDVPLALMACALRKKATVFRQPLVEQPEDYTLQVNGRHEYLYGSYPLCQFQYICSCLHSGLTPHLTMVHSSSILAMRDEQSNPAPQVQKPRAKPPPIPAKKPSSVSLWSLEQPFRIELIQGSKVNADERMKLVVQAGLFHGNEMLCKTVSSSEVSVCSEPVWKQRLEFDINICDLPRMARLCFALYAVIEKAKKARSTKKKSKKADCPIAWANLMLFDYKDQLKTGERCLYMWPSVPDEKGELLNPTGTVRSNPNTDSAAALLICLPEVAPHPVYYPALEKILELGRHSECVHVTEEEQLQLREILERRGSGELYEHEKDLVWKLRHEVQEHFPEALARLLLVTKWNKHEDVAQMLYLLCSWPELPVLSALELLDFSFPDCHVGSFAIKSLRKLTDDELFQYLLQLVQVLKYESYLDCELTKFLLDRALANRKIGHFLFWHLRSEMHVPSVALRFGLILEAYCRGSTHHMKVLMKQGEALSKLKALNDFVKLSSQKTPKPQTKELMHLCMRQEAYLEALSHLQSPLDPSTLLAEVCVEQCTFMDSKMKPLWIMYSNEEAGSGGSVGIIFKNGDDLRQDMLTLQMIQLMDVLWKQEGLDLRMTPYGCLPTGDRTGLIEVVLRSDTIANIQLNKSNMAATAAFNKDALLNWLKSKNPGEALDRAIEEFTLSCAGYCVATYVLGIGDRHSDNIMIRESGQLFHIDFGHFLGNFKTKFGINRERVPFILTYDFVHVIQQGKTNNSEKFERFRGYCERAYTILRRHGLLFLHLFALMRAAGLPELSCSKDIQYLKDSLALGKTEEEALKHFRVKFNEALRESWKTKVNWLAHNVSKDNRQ
PIK3CG (human), sequence (P48736 whole entry, looked up): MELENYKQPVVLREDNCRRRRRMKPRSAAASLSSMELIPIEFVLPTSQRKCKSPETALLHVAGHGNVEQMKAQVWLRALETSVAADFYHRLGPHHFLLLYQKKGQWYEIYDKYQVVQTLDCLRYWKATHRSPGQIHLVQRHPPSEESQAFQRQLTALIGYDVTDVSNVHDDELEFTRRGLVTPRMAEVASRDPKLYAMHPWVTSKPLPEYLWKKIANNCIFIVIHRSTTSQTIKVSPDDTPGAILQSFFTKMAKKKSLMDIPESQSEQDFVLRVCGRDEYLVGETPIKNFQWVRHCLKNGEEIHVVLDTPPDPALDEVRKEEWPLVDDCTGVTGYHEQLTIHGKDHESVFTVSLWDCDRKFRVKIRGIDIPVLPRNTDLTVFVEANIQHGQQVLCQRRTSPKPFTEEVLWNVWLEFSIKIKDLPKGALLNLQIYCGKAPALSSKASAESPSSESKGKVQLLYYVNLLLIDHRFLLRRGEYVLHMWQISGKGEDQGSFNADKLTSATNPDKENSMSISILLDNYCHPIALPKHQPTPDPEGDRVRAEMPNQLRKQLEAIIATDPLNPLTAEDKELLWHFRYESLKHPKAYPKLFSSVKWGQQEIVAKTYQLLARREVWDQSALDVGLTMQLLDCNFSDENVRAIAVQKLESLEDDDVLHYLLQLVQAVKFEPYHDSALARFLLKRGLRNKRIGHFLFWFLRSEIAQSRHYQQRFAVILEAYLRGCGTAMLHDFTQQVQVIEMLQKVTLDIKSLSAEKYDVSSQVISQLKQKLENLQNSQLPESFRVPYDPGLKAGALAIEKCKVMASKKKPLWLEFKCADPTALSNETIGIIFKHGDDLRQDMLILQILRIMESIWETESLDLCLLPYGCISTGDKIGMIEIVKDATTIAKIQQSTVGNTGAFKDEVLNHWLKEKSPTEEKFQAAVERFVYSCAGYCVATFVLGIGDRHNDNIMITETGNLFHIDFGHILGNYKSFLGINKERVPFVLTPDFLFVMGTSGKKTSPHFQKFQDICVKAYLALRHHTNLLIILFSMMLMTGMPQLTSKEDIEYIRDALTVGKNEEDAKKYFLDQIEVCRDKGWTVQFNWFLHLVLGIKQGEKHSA

SMILES	pKi (PIK3CB (Human))	pKi (PIK3CD (Human))	pKi (PIK3CG (human))	pKi (PIK3CA (human))
COC(C)(C)c1cc2nc(-c3cnc(N)nc3)nc(N3CCOCC3)c2s1	7.68	8.70	8.40	–
COC1(c2sc3c(N4CCOCC4)nc(-c4cnc(N)nc4)nc3c2C)COC1	7.57	8.15	8.15	–
CC1(C)OCCc2c1sc1c(N3CCOCC3)nc(-c3cnc(N)nc3)nc21	7.85	8.52	8.52	9.00
CC1(C)COC1c1cc2nc(-c3cnc(N)nc3)nc(N3CCOCC3)c2s1 (centres undefined)	7.72	8.05	8.30	9.00
